Data: US20030187048A1, “Method for inhibiting skin lesion formation using histamine as the active ingredient” (priority 1991, published 2003)
Values joined by “and” are separate entries in the source; they are usually repeats but may differ in a detail not shown here. Identical values can stand only once. Like-named read-outs stand apart in the source and are kept apart here.

Experiments:
herpes genitalis lesions = settings: for Burning score / Local pain score: scale 0 to 5; for Reduction in Complete Healing Time: vs usual episode
Description: Treatment consisted of topical application three times a day for a period of five days. […] The percent reduction in complete healing time as compared to a usual episode was evaluated grouping the two patients who received active gel concentrations together and comparing to the two patients receiving placebo gel.
Each patient was contacted daily for 5 days for his or her estimate of the symptomatic relief of 6 common symptoms associated with genital herpes as well as the patient's interpretation of total healing of the episode. In an attempt to quantify responses, patients were asked to rate each symptom on a scale of 0 to 5 with 0 representing no evidence of the symptom and 5 representing the worst or most prominent evidence of the symptom ever for the patient. Subject compliance with the study regimen and the use of other medications was also assessed.

[1] = tested on: Photodermatitis (second degree sunburn); settings: for Avg blister/hr: from count at 65 hours; for Discomfort on Lotion or Gel Application / General Discomfort: scored 1 (none) to 5 (worst)
Description: Treatment consisted of topical application of all lotion or gel concentrations to their respective, randomly assigned quadrants ever 30 minutes for the first 2 hours following the irradiation period, followed by lotion or gel or applications every hour for four hours, then lotion or gel applications three times a day until 65 hours elapsed post 2-z irradiation. Photographs were taken during the treatment period and upon the formation of identifiable blisters, the numbers of blisters in each quadrant were recorded at three times during-the treatment period with cessation of lotion or gel application and data collection at the 65 hours point as exfoliation (peeling) of the outer layers of the epidermis began at 70 hours.
Subjective evaluation involved an estimate of pain/discomfort following lotion or gel application in each quadrant as well as a comparative general discomfort level for each quadrant during the treatment period. Pain/discomfort was scored from 1 (none) to 5 (worst).

thermal burn injuries = settings: for Height in mm of Blister / Height in mm of Swelling of Soft Tissue Surrounding Burn Site / Subjective Evaluation of Tenderness on Palpations (rated 0 to 5) / Zone of Erythema Surrounding Burn Site (mm): per burn site
[2] = 0.0045% IEP, lower right quadrant
[3] = 0.0067% IEP, upper left quadrant
[4] = 0.0045% gel, from greatest value of that burn site
[5] = 0.009% gel, from greatest value of that burn site

NCCc1c[nH]cn1 [IEP, 1H-imidazole-4-ethanamine,phosphate]
Burning score (herpes genitalis lesions; 0.0275% IEP gel, day 1): 3
Local pain score (herpes genitalis lesions; 0.0275% IEP gel, day 1 of treatment): 3
Burning score (herpes genitalis lesions; 0.0275% IEP gel, day 2): 0
Local pain score (herpes genitalis lesions; 0.0275% IEP gel, day 2): 0
Burning score (herpes genitalis lesions; 0.0275% IEP gel, day 3): 0
Local pain score (herpes genitalis lesions; 0.0275% IEP gel, day 3): 0
Burning score (herpes genitalis lesions; 0.0275% IEP gel, day 4): 0
Local pain score (herpes genitalis lesions; 0.0275% IEP gel, day 4): 0
Burning score (herpes genitalis lesions; 0.0275% IEP gel, day 5): 0
Local pain score (herpes genitalis lesions; 0.0275% IEP gel, day 5): 0
Healing Time (herpes genitalis lesions; 0.0275% IEP gel, patient 603, usual healing time 7 days): 1 days
Reduction in Complete Healing Time (herpes genitalis lesions; 0.0275% IEP gel): 85%
Burning score (herpes genitalis lesions; […] IEP gel, day 1): 3
Local pain score (herpes genitalis lesions; […] IEP gel, day 1): 4
Burning score (herpes genitalis lesions; […] IEP gel, day 2): 1
Local pain score (herpes genitalis lesions; […] IEP gel, day 2): 2
Burning score (herpes genitalis lesions; […] IEP gel, day 3): 0
Local pain score (herpes genitalis lesions; […] IEP gel, day 3): 2
Burning score (herpes genitalis lesions; […] IEP gel, day 4): 0
Local pain score (herpes genitalis lesions; […] IEP gel, day 4): 0
Burning score (herpes genitalis lesions; […] IEP gel, day 5): 0
Local pain score (herpes genitalis lesions; […] IEP gel, day 5): 0
Healing Time (herpes genitalis lesions; […] IEP gel, patient 604, usual healing time 7 days): 3.5 days
Reduction in Complete Healing Time (herpes genitalis lesions; […] IEP gel): 50%
Difference in percent reduction in complete healing time vs placebo (herpes genitalis lesions; combined […] and 0.0275% groups, p<0.05): significant
Untoward reactions (herpes genitalis lesions; topical gel […], 0.0275%, three times a day for five days): no untoward reactions
Total # of blisters at 42 hrs [1, 2]: 7
Total # of blisters at 52 hrs [1, 2]: 7
Total # of blisters at 65 hrs [1, 2]: 14
Avg blister/hr [1, 2]: 0.215 blister/hr
Discomfort on Lotion or Gel Application ([1]; 0.0045% lotion or gel): 2
General Discomfort ([1]; 0.0045% lotion or gel): 1
Total # of blisters at 52 hrs [1, 3]: 2
Total # of blisters at 65 hrs [1, 3]: 10
Avg blister/hr [1, 3]: 0.154 blister/hr
Total # of blisters at 42 hrs ([1]; 0.0067% IEP, upper left quadrant, hours post irradiation): 2
Discomfort on Lotion or Gel Application ([1]; 0.0067% lotion or gel): 1
General Discomfort ([1]; 0.0067% lotion or gel): 1
Treatment effect vs placebo, total rate of blister formation ([1]; active lotion or gel (0.0045% and 0.0067% combined), p<0.05): statistically significant treatment effect
Untoward effects ([1]; in vivo): no untoward effects
Height in mm of Blister (thermal burn injuries; 0.0045% gel, 3.5 hours): 3 mm and 2 mm
Height in mm of Swelling of Soft Tissue Surrounding Burn Site (thermal burn injuries; 0.0045% gel, 3.5 hours): 1 mm
Subjective Evaluation of Tenderness on Palpations (rated 0 to 5) (thermal burn injuries; 0.0045% gel, 3.5 hours): 3 and 5
Zone of Erythema Surrounding Burn Site (mm) (thermal burn injuries; 0.0045% gel, 3.5 hours): 8 mm and 4 mm
Height in mm of Blister (thermal burn injuries; 0.0045% gel, 8 hours): 2.5 mm and 1.5 mm
Height in mm of Swelling of Soft Tissue Surrounding Burn Site (thermal burn injuries; 0.0045% gel, 8 hours): 1 mm
Subjective Evaluation of Tenderness on Palpations (rated 0 to 5) (thermal burn injuries; 0.0045% gel, 8 hours): 2 and 4
Zone of Erythema Surrounding Burn Site (mm) (thermal burn injuries; 0.0045% gel, 8 hours): 6 mm and 3 mm
Height in mm of Blister (thermal burn injuries; 0.0045% gel, 22 hours): 1.5 mm and 1 mm
Subjective Evaluation of Tenderness on Palpations (rated 0 to 5) (thermal burn injuries; 0.0045% gel, 22 hours): 2 and 4
% Reduction in Tissue Damage at 22 Hours: Height of Blister (thermal burn injuries; [4]): 50.0%
% Reduction in Tissue Damage at 22 Hours: Swelling of Surrounding Tissue (thermal burn injuries; [4]): 100.0% and 50.0%
% Reduction in Tissue Damage at 22 Hours: Zone of Erythema (mm) (thermal burn injuries; [4]): 66.7% and 81.3%
Height in mm of Blister (thermal burn injuries; 0.009% gel, 3.5 hours): 2 mm
Height in mm of Swelling of Soft Tissue Surrounding Burn Site (thermal burn injuries; 0.009% gel, 3.5 hours): 1 mm
Subjective Evaluation of Tenderness on Palpations (rated 0 to 5) (thermal burn injuries; 0.009% gel, 3.5 hours): 2 and 3
Zone of Erythema Surrounding Burn Site (mm) (thermal burn injuries; 0.009% gel, 3.5 hours): 6 mm and 4 mm
Height in mm of Blister (thermal burn injuries; 0.009% gel, 8 hours): 1 mm
Height in mm of Swelling of Soft Tissue Surrounding Burn Site (thermal burn injuries; 0.009% gel, 8 hours): 0 mm
Subjective Evaluation of Tenderness on Palpations (rated 0 to 5) (thermal burn injuries; 0.009% gel, 8 hours): 2
Zone of Erythema Surrounding Burn Site (mm) (thermal burn injuries; 0.009% gel, 8 hours): 4 mm and 3 mm
Height in mm of Swelling of Soft Tissue Surrounding Burn Site (thermal burn injuries; 0.009% gel, 22 hours): 0 mm
Subjective Evaluation of Tenderness on Palpations (rated 0 to 5) (thermal burn injuries; 0.009% gel, 22 hours): 1
Zone of Erythema Surrounding Burn Site (mm) (thermal burn injuries; 0.009% gel, 22 hours): 2 mm
% Reduction in Tissue Damage at 22 Hours: Height of Blister (thermal burn injuries; [5]): 75.0% and 100.0%
% Reduction in Tissue Damage at 22 Hours: Swelling of Surrounding Tissue (thermal burn injuries; [5]): 100.0%
% Reduction in Tissue Damage at 22 Hours: Tenderness on Palpation (thermal burn injuries; [5]): 80.0%
% Reduction in Tissue Damage at 22 Hours: Zone of Erythema (mm) (thermal burn injuries; [5]): 77.8% and 75.0%
Difference in tissue damage parameters vs placebo (thermal burn injuries; 0.009% vs placebo, p<.O1 for 3 of the 4 parameters, fourth p<0.05): highly significant
Untoward events or significant complications (thermal burn injuries; in vivo): no untoward events or significant complications
